For 19 compounds, IC50 results are on record in patent US10392389B2, “Heterocyclic compounds for the inhibition of PASK” (BioEnergenix, LLC, priority 2012, dated 2019).

In one experiment the target is T1, PASK (UniProt #Q96RG2; human recombinant N-terminal GST tagged construct, residues 879-1323) (Homo sapiens, UniProt Q96RG2).
T1 construct: N-terminal GST tagged construct, residues 879-1323; GST (N); host or cells: insect cells
Put plainly: PASK ATP Radiochemical Assay. The format is biochemical. The conditions noted are these: 33P-ATP, Myelin Basic Protein substrate, read-out: IC50 Kinase Domain. On the procedure: Biochemical Assay for hPASK Activity
PASK ATP Radiochemical Assay
(§1) Purified PASK (UniProt #Q96RG2; human recombinant N-terminal GST tagged construct, residues 879-1323) from insect cells (final concentration 5 nM) is added to freshly prepared Base Reaction Buffer containing 20 mM HEPES (pH 7.5), 10 mM MgCl2, 1 mM EGTA, 0.02% Brij35, 0.02 mg/ml BSA, 0.1 mM Na3VO4, 2 mM DTT, 1% DMSO and Myelin Basic Protein (20 μM final). Test compounds in DMSO are then added and the mixture, followed by delivery of ^33P-ATP (specific activity 0.01 μCi/μl final) to initiate the reaction. The kinase reaction is incubated for 120 min at room temperature. The entire reaction mixture is washed through onto a P81 Phosphocellulose paper and washed three times for 10 minutes in 75 mM phosphoric acid and once in methanol prior to drying and scintillation counting.

A further experiment deals with T2, PASK (Invitrogen) (Homo sapiens, UniProt Q96RG2).
T2 construct: IC50 Kinase Domain; purchased Invitrogen
T2 sequence (Q96RG2 999-1251 limits assumed): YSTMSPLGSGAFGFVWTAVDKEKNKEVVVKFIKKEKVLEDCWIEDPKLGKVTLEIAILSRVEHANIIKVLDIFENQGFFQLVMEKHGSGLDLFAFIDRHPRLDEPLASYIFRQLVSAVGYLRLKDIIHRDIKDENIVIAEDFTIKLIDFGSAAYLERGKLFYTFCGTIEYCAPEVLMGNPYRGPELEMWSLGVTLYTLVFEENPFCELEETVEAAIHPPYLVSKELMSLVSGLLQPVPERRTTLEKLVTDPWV
Put plainly: PAS Kinase FRET Assay. The format is biochemical. The conditions noted are these: PAS kinase TR-FRET assay (665 nm/615 nm); read-out: IC50 Kinase Domain. In outline:
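PASK phosphorylates a ULight-peptide with ATP in 50 mM HEPES, 10 mM MgCl2, 1 mM EGTA, 0.01% Tween-20, 2 mM DTT for 2 h at 25° C in the dark. Compounds are added as 4× serial dilutions (top 12×10^−5 M at 4×). After stopping, an Eu anti-phospho-substrate antibody is added for 1 h and TR-FRET is read at 665/615 nm.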
In general terms: TR-FRET usually uses a lanthanide donor and a delayed reading to cut background.

For experiment [1], the target named is T3, CK2a2 (NP_001887; human full-length protein, GST tagged) (Homo sapiens, UniProt P19784).
T3 construct: human full-length protein, GST tagged; GST; host or cells: insect cells
T3 sequence (P19784 whole entry): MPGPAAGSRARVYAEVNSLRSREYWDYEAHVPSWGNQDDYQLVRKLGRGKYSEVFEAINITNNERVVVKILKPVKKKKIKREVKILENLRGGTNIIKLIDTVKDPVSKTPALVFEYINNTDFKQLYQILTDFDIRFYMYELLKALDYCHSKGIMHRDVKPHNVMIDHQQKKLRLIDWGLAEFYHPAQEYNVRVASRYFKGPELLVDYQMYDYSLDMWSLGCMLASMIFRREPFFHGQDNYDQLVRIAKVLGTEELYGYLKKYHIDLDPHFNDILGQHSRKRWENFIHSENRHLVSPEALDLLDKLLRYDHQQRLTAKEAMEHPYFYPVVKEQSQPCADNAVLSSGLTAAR
Put plainly: Biochemical Assay for CK2 Activity. The conditions noted are these: 33P-ATP radiochemical assay, CK2 sub [RRRDDDSDDD]. As to the method: Biochemical Assay for CK2 Activity
as §1, with “Purified CK2a2 (NP_001887;” for “Purified PASK (UniProt #Q96RG2;”, “human full-length protein,” for “human recombinant N-terminal”, “GST tagged)” for “GST tagged construct, residues 879-1323)”, “concentration 1.2” for “concentration 5”, “mM Hepes” for “mM HEPES”, “and CK2 sub [RRRDDDSDDD]” for “and Myelin Basic Protein”

Experiment [2] deals with T4, PIM1 (NP_002639; human full-length protein, 6×His tagged) (Homo sapiens, UniProt P11309).
T4 construct: human full-length protein, 6×His tagged; 6xHis; host or cells: insect cells
T4 sequence (P11309 whole entry): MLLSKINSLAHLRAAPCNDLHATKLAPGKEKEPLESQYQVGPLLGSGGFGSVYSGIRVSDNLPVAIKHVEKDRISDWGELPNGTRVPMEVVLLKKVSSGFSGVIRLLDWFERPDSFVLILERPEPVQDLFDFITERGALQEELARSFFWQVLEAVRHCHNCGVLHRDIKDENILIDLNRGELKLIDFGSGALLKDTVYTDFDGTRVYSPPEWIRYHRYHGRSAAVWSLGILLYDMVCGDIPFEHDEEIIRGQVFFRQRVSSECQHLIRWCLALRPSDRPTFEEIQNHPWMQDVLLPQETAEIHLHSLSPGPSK
Put plainly: Biochemical Assay for PIM1 Activity. The conditions noted are these: 33P-ATP radiochemical assay, S6K/Rsk2 peptide 2 substrate. As to the method:
Biochemical Assay for PIM1 Activity
as §1, with “Purified PIM1 (NP_002639;” for “Purified PASK (UniProt #Q96RG2;”, “human full-length protein, 6×His tagged)” for “human recombinant N-terminal GST tagged construct, residues 879-1323)”, “concentration 1.0” for “concentration 5”, “mM Hepes” for “mM HEPES”, “and substrate S6K/Rsk2 peptide 2 [KKRNRTLTK]” for “and Myelin Basic Protein”, “activity 10” for “activity 0.01”

pIC50: −log10 of the molar value.

T1 sequence (Q96RG2 879-1323, stated change not applied): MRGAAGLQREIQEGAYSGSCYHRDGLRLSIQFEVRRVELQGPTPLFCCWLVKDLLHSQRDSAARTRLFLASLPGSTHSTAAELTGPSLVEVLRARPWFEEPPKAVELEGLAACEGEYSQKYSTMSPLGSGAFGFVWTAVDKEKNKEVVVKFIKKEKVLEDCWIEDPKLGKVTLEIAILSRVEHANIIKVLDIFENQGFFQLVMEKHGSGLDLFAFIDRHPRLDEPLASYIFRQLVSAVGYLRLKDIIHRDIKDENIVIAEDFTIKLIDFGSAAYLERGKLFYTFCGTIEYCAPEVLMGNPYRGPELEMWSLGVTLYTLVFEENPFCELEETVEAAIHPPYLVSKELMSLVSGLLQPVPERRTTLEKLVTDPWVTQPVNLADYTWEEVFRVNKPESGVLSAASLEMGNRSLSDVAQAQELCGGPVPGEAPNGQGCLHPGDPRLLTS

The pIC50 is the negative decadic logarithm of the IC50, by convention in mol/L. Regarding `CCn1nccc1-c1cnn2c(=O)cc(-c3ccc(Cl)c(OC)c3)[nH]c12` [Example 65, 5-(4-chloro-3-methoxyphenyl)-3-(1-ethyl-1H-pyrazol-5-yl)pyrazolo[1,5-a]pyrimidin-7(4H)-one], the pIC50 (on PASK; on PASK (Invitrogen); in experiment [1]; in experiment [2]) was at least 5.00 each time.
For `CCn1nccc1-c1cnn2c(=O)cc(-c3ccc(Cl)cc3)[nH]c12` [Example 66, 5-(4-chlorophenyl)-3-(1-ethyl-1H-pyrazol-5-yl)pyrazolo[1,5-a]pyrimidin-7(4H)-one], the pIC50 (on PASK; at PASK (Invitrogen); in experiment [1]; in experiment [2]) was at least 5.00 each time.
Regarding `CCn1nccc1-c1cnn2c(=O)cc(-c3ccc4c(cnn4CC)c3)[nH]c12` [Example 67, 5-(1-ethyl-1H-indazol-5-yl)-3-(1-ethyl-1H-pyrazol-5-yl)pyrazolo[1,5-a]pyrimidin-7(4H)-one], the pIC50 (at PASK; at PASK (Invitrogen); in experiment [1]; in experiment [2]) was at least 5.00 in each case.
Turning to `COc1cc(-c2cc(=O)n3ncc(-c4cc(C)n[nH]4)c3[nH]2)ccc1Cl` [Example 69, 5-(4-chloro-3-methoxyphenyl)-3-(3-methyl-1H-pyrazol-5-yl)pyrazolo[1,5-a]pyrimidin-7(4H)-one], the pIC50 (at PASK; at PASK (Invitrogen); in experiment [1]; in experiment [2]) was at least 5.00 each time.
In the case of `O=c1cc(-c2ccc(Cl)c(Cl)c2)[nH]c2c(-c3cc[nH]n3)cnn12` [Example 70, 5-(3,4-dichlorophenyl)-3-(1H-pyrazol-3-yl)pyrazolo[1,5-a]pyrimidin-7(4H)-one], the pIC50 (on PASK; on PASK (Invitrogen); in experiment [1]; in experiment [2]) was at least 5.00 throughout.
As to `Cn1ncc2cc(-c3cc(=O)n4ncc(-c5cc[nH]n5)c4[nH]3)ccc21` [Example 71, 5-(1-methyl-1H-indazol-5-yl)-3-(1H-pyrazol-3-yl)-4H,7H-pyrazolo[1,5-a]pyrimidin-7-one], the pIC50 (on PASK; at PASK (Invitrogen); in experiment [1]; in experiment [2]) was at least 5.00 throughout.
`Cn1ncc2cc(-c3cc(=O)n4ncc(-c5ncco5)c4[nH]3)ccc21` [Example 73, 5-(1-methyl-1H-indazol-5-yl)-3-(oxazol-2-yl)-4H,7H-pyrazolo[1,5-a]pyrimidin-7-one]: the pIC50 (on PASK; on PASK (Invitrogen); in experiment [1]; in experiment [2]) was at least 5.00 throughout.
Consider `Cc1noc(-c2cnn3c(=O)cc(-c4ccc5c(cnn5C)c4)[nH]c23)n1` [Example 74, 3-(3-methyl-1,2,4-oxadiazol-5-yl)-5-(1-methyl-1H-indazol-5-yl)-4H,7H-pyrazolo[1,5-a]pyrimidin-7-one], for which the pIC50 (on PASK; at PASK (Invitrogen); in experiment [1]; in experiment [2]) was at least 5.00 in each case.
Consider `COc1cc(-c2cc(=O)n3ncc(-c4ccnn4C)c3[nH]2)ccc1F` [Example 79, 5-(4-fluoro-3-methoxyphenyl)-3-(1-methyl-1H-pyrazol-5-yl)pyrazolo[1,5-a]pyrimidin-7(4H)-one], for which the pIC50 (at PASK; on PASK (Invitrogen); in experiment [1]; in experiment [2]) was at least 5.00 in each case.
For the compound `Cn1ccc(-c2cnn3c(=O)cc(-c4ccc5c(cnn5C)c4)[nH]c23)n1` [Example 83, 5-(1-methyl-1H-indazol-5-yl)-3-(1-methyl-1H-pyrazol-3-yl)pyrazolo[1,5-a]pyrimidin-7(4H)-one], the pIC50 (at PASK; at PASK (Invitrogen); in experiment [1]; in experiment [2]) was at least 5.00 in each case.
Turning to `CCn1ncc2cc(-c3cc(=O)n4ncc(-c5n[nH]cc5C)c4[nH]3)ccc21` [Example 84, 5-(1-ethyl-1H-indazol-5-yl)-3-(4-methyl-1H-pyrazol-3-yl)-4H,7H-pyrazolo[1,5-a]pyrimidin-7-one], the pIC50 (on PASK; on PASK (Invitrogen); in experiment [1]; in experiment [2]) was at least 5.00 each time.
Take `CCn1ncc2cc(-c3cc(=O)n4ncc(-c5c(C)cnn5C)c4[nH]3)ccc21` [Example 85, 3-(1,4-dimethyl-1H-pyrazol-5-yl)-5-(1-ethyl-1H-indazol-5-yl)-4H,7H-pyrazolo[1,5-a]pyrimidin-7-one]: the pIC50 (at PASK; at PASK (Invitrogen); in experiment [1]; in experiment [2]) was at least 5.00 throughout.
For the compound `CCn1ncc2cc(-c3cc(=O)n4ncc(-c5cc(C)no5)c4[nH]3)ccc21` [Example 86, 5-(1-ethyl-1H-indazol-5-yl)-3-(3-methylisoxazol-5-yl)pyrazolo[1,5-a]pyrimidin-7(4H)-one], the pIC50 (on PASK; at PASK (Invitrogen); in experiment [1]; in experiment [2]) was at least 5.00 each time.
Turning to `CCn1ncc2cc(-c3cc(=O)n4ncc(-c5oncc5C)c4[nH]3)ccc21` [Example 87, 5-(1-ethyl-1H-indazol-5-yl)-3-(4-methyl-1,2-oxazol-5-yl)-4H,7H-pyrazolo[1,5-a]pyrimidin-7-one], the pIC50 (on PASK; at PASK (Invitrogen); in experiment [1]; in experiment [2]) was at least 5.00 throughout.
For the compound `Cc1cnc(-c2cnn3c(=O)cc(-c4ccc5onc(C)c5c4)[nH]c23)o1` [Example 91, 5-(3-methylbenzo[d]isoxazol-5-yl)-3-(5-methyloxazol-2-yl)pyrazolo[1,5-a]pyrimidin-7(4H)-one], the pIC50 (on PASK; at PASK (Invitrogen); in experiment [1]; in experiment [2]) was at least 5.00 throughout.
For `CCn1nccc1-c1cnn2c(=O)cc(-c3ccc4c(cnn4C)c3)[nH]c12` [Example 93, 3-(1-ethyl-1H-pyrazol-5-yl)-5-(1-methyl-1H-indazol-5-yl)pyrazolo[1,5-a]pyrimidin-7(4H)-one], the pIC50 (at PASK; at PASK (Invitrogen); in experiment [1]; in experiment [2]) was at least 5.00 in each case.
On to `CCn1nccc1-c1cnn2c(=O)cc(-c3ccc(Cl)c(OCC(F)(F)F)c3)[nH]c12` [Example 94, 5-(4-chloro-3-(2,2,2-trifluoroethoxy)phenyl)-3-(1-ethyl-1H-pyrazol-5-yl)pyrazolo[1,5-a]pyrimidin-7(4H)-one], for which the pIC50 (at PASK; on PASK (Invitrogen); in experiment [1]; in experiment [2]) was at least 5.00 each time.
Regarding `CCn1nccc1-c1cnn2c(=O)cc(-c3ccc(Cl)c(Cl)c3)[nH]c12` [Example 95, 5-(3,4-dichlorophenyl)-3-(1-ethyl-1H-pyrazol-5-yl)pyrazolo[1,5-a]pyrimidin-7(4H)-one], the pIC50 (at PASK; on PASK (Invitrogen); in experiment [1]; in experiment [2]) was at least 5.00 each time.
Turning to `Cn1ccc(-c2cnn3c(=O)cc(-c4ccc(Cl)c(OCC(F)(F)F)c4)[nH]c23)n1` [Example 96, 5-(4-chloro-3-(2,2,2-trifluoroethoxy)phenyl)-3-(1-methyl-1H-pyrazol-3-yl)pyrazolo[1,5-a]pyrimidin-7(4H)-one], the pIC50 at PASK is at least 5.00; at PASK (Invitrogen) it was at least 5.00; in experiment [1], under 5.00; in experiment [2], at least 5.00.
